As a reminder, the melting point is the temperature of the solid-liquid transition.

Melting point data for 33 molecules are collected here from a melting point compilation (Tetko et al.; mined from patent text by program, amines drawn as free bases though some values may be those of a salt).

Take `O=C(Nc1ccccc1)O[C@@H]1CN=C(c2ccoc2)O[C@H]1c1ccccc1` (racemic): the melting point was 130 °C.
Then `COc1ccc(C(=O)Nc2ccc(F)c(F)c2)cc1NS(=O)(=O)c1cc(Cl)cc(Cl)c1`, with 228 to 231 °C.
Regarding `O=C(CCN1CCN(c2ncc(F)cn2)CC1)Cc1cccs1`, the melting point fell in the range of 77 to 78 °C.
`CCCCCCCCCCCCCCOc1cccc(CC(=O)Nc2ccccc2CBr)c1`: the melting point lay in the range of 103 to 106 °C.
The figure for `OCc1ccc(-c2ccc3nnn(Cc4ccc5ncccc5c4)c3n2)cc1F` is 202 to 204 °C; for `COc1ccc(CNC(=O)Nc2ccc(CN3C(=O)[C@H]4CCC[C@H]4N(C(=O)CN4C(=O)c5ccccc5C4=O)c4ccccc43)cc2)cc1` (relative stereo) it is 156 to 158 °C.
Then `Oc1nc2ccc3nonc3c2nc1O`, with greater than 300 °C; and `Cc1cn(C(C)(C)C(=O)N(C)C)nc1-c1ccc(Cl)c(Cl)c1`, with 142 °C.
The figure for `COc1cn(-c2ccc(C3CCOCC3)cc2F)nc(-c2ccnn2-c2ccccc2)c1=O` is 187 to 189 °C; for `COc1cc2c(cc1OC)C(C(C#N)SCCOC(C)=O)=NCC2` (stereo not drawn) it is 157 °C; for `Cc1cc(Cn2nnc(C(N)=O)c2N)cc(C)c1C(=O)c1ccc(Cl)cc1` it is 208 to 209 °C.
On to `CCCOC(=O)C1=NN(c2ccccc2)C(C(=O)OCCC)=NN1c1ccccc1`, for which the melting point fell in the range of 82.5 to 83 °C.
`COc1ccc(-c2nc(Cn3cncn3)nc3cc(OC)c(OC)cc23)cc1`: the melting point fell in the range of 206 to 207 °C.
Then `CC(=O)OC1(C(C)=O)C(C)CC2C3CC(C)C4=CC(=O)C=CC4(C)C3(Br)C(O)CC21C` (stereo not drawn), with 184 to 185 °C; and `CCCCCCCCCCCCCCCCCCNC(=O)NCCCCCCN`, with 123 to 168 °C.
The figure for `COc1ccc(C2(C#Cc3cccc([N+](=O)[O-])c3)CCCC(=O)C2)cc1OC1CCCC1` (stereo not drawn) is 46 to 48 °C; for `COc1ccc(CCNC(=O)NO)cc1OC` it is 109 to 111 °C.
Then `CCN1c2ncccc2C(=O)N(C)c2cccnc21`, with 130 to 132 °C; and `CCOC(=O)c1cc(=O)c2c(OCC(O)COc3ccc(C(C)(C)C)cc3)cccc2o1` (stereo not drawn), with 99 to 102 °C.
In the case of `O=C(Nc1cccc(C(F)(F)F)c1)c1ccccc1SSc1ccccc1C(=O)Nc1cccc(C(F)(F)F)c1`, the melting point lay in the range of 167 to 168 °C.
The figure for `COc1cc2c(cc1[N+](=O)[O-])N(C)C(=O)CNC2` is 145 to 149 °C; for `Cc1ccc(C(=O)Nc2ccc(N3CCCC3)c(C(F)(F)F)c2)cc1Nc1nccc(-c2cccnc2)n1` it is 129 to 130 °C.
Then `C=C(C)Cn1c(=O)n(C)c(=O)c2c(SCCO)n(Cc3cccc4ccccc34)nc21`, with 135 to 137 °C.
Then `Cc1ccc(C)c(C(=O)CC#N)c1`, with 75 to 76 °C; and `Cn1nc(-c2cccc(-n3ncc4cc(C(C)(C)C)cc(F)c4c3=O)c2CO)cc(Nc2ccn(C[C@@H](O)CO)n2)c1=O`, with 245 to 250 °C.
Turning to `O=C1CCCC(=O)N1c1cc(Cc2n[nH]c(=O)c3ccccc23)ccc1F`, the melting point was in the range of 259 to 263 °C.
`O=[N+]([O-])c1oc2ccc(N3Cc4ccccc4C3)cc2c1-c1ccccc1`: the melting point lay in the range of 228 to 230 °C.
With `O=CNCc1ncc(-c2ccccc2)o1`, the melting point fell in the range of 225 to 228 °C.
In turn, `CC(C)(C)C(=O)C(Cl)C(=O)Nc1ccccc1` (stereo not drawn) displayed a melting point of 154 °C.
In the case of `CC1(Cc2cc3[nH]c(=O)oc3cc2Br)OCCO1`, the melting point lay within 117 to 119 °C.
The figure for `O=C(O)CS(=O)(=O)c1cccc(C(=O)C2CCC3(CCNCC3)CC2)c1` is 134 to 138 °C; for `CN(C)C=NS(=O)(=O)c1cc2cnc(C=O)cc2o1` it is 186 to 188 °C.
The figure for `COc1cc(/C=C/c2cc(/C=C/c3c[nH]c4ccccc34)n[nH]2)ccc1OCc1ccccn1` is 120 to 130 °C.
